According to publication PMC7345095, “New Synthetic Nitro-Pyrrolomycins as Promising Antibacterial and Anticancer Agents” (Antibiotics, 2020):
≈ marks a conversion by molar mass, not a printed value. Like-named read-outs stand apart in the source and are kept apart here.

How the values were obtained:
[1] = system: HCT116 and MCF 7 cancer cell lines; experiment: MTT viability assay, statements over both cancer cell lines; assay type: cell-based; conditions: for IC50: MTT, 48 h challenge, group statement, read-out: IC50, regardless of the cancer cell line (HCT116, MCF 7); for C-SI, mean value among the two cancer cell lines: mean of HCT116 and MCF 7 C-SI
Procedure: (§1) The HCT116 colon cancer cell line (ATCC® CCL-247™), the MCF 7 breast cancer cell line (ATCC® HTB-22™) and the hTERT RPE-1 -immortalized retinal pigment epithelial cell line (ATCC® CRL-4000™) used in this study were cultured in DMEM medium (Gibco, Paisley, UK), supplemented with 1% glutamine, 10% heat-inactivated fetal bovine serum and 100U/mL penicillin and 100 μg/mL streptomycin, as already described, and maintained at 37 °C and 5% CO2.
(§2) Cells were plated at 5 × 10^3 cells/well in 96-well plates and incubated for 24 h prior to treatment for further 48 h of different concentrations of PMs. After incubation, a sample of 20 μL of Thiazolyl Blue Tetrazolium Bromide (5 mg mL^−1) in PBS was added to each well and cultured for 2h at 37 °C in CO2 incubator. After removing the medium containing MTT and three washes with PBS, 100 μL of warm DMSO was added to each well to dissolve formazan. Samples were shaken for 10 min, at room temperature in the dark, and the absorbance was recorded at 570 nm using a microplate reader (Spark® 20M Tecan Trading AG, Switzerland). Percentage of cell viability with respect to untreated control cells (vehicle control) was calculated after subtraction of the blank. The IC50 values, that is the concentration necessary to inhibit the 50% of cell growth, was calculated using a dose-response model, obtained from sigmoidal fitting of response curves of percent inhibition versus logarithmic concentration of PMs, using Graph Pad Prism software. Each result represents the mean value of three different experiments performed in triplicate.

HCT116 cells [2] = experiment: Acridine orange/ethidium bromide (AO/EB) staining; assay type: cell-based; conditions: for AO/EB fluorescence of treated HCT116 cells (type of cell death): treated at IC50 for 24 and 48 h
Description: Cells were immediately observed under a fluorescent microscopy (Carl Zeiss) at 630 × magnification.

[3] = system: hTERT RPE-1 immortalized retinal pigment epithelial cell line; experiment: MTT viability assay (cytotoxicity on normal cells); assay type: cell-based; conditions: hTERT-RPE1; MTT, 48 h of treatment, normal epithelial cells; read-out: IC50 hTERT-RPE-1
Procedure: as §1, §2

[4] = system: HCT116 colon cancer cell line; experiment: MTT viability assay; assay type: cell-based; conditions: for IC50: MTT, 48 h of treatment; for C-SI (Cancer Selectivity Index), HCT116: ratio of IC50 of normal hTERT-RPE-1 to that of HCT116, first value of the cell
Procedure: as §1, §2

[5] = system: MCF 7 breast cancer cell line; experiment: MTT viability assay; assay type: cell-based; conditions: for IC50: MTT, 48 h of treatment; for C-SI (Cancer Selectivity Index), MCF 7: ratio of IC50 of normal hTERT-RPE-1 to that of MCF 7, second value of the cell
Procedure: as §1, §2

HCT116 cells [6] = experiment: Morphological assessment, phase contrast inverted microscope; assay type: cell-based; conditions: 0.1 µM (sub-inhibitory), 24 h
Procedure: HCT116 cells were seeded in 24 well culture plates with a cell density of 1 × 10^5 cells/well. After 24 h cells were incubated for 24 h with different concentration of the selected PMs, and observed under a phase contrast inverted microscope (Carl Zeiss) at 200× magnification, for morphological changes assessment.

[7] = system: Pseudomonas aeruginosa ATCC 10145; experiment: Kill curve assay (MBC), planktonic cells; assay type: cell-based; conditions: for MBC: Pseudomonas aeruginosa, ATCC10145, minimal bactericidal concentration, planktonic cells, 24 h challenge, LB medium, read-out: MBC P. aeruginosa; for log reduction in the number of viable CFUs, P. aeruginosa: highest concentration tested 100 μM, 24 h; for B-SI (Bacterial Selectivity Index), P. aeruginosa: ratio of IC50 of normal hTERT-RPE-1 to MBC of P. aeruginosa, first value of the cell
Procedure: (§3) Kill curve assays were performed to test the antimicrobial efficacy of pyrrolomycins (i.e., 1, 2, 5a, 5b, 5c, 5d), as well as that of the natural PM-C against the indicator pathogen Staphylococcus aureus ATCC 25923 and Pseudomonas aeruginosa ATCC 10145 strains. Briefly, a single colony of either S. aureus or P. aeruginosa strains was picked up and pre-cultivated (ca. 16 h) at 37 °C with shacking (160 rpm) in Luria Bertani medium (hereinafter named as LB and composed of (g L^−1): sodium chloride, 10; yeast extract, 5; tryptone, 10). The same medium was solidified by adding 15 g L^−1 of bacteriological agar when needed. Bacterial cells were then inoculated (1% v/v) in LB medium amended with increasing concentrations—ranging from 0 to 100 μM as initial concentration—of each pyrrolomycin tested, challenging the cultures for 24 h and incubating them as reported above. The actual number of viable colony forming units per milliliter of culture (CFU mL^−1) of each bacterial strain, who survived the challenge exerted by pyrrolomycins, was evaluated through the spot plate count method and compared to unchallenged cultures, as reported elsewhere. The data are reported as average values (n = 3) of CFU mL^−1 in the logarithmic (Log10) scale with standard deviation (SD). Evaluation of the MIC of PM-5c, and -5d against S. aureus and of PM-5d against P. aeruginosa was performed by incubating 1% (v/v) of an overnight bacterial suspension in LB medium in presence of increasing concentrations of the PMs. As a control, MIC of PM-C was measured. At the time of the inoculum and after overnight challenge, the absorbance of the cultures at 600 nm, which is an indirect way to measure the bacterial cell growth, was registered using a Spark™ 10 M multimode microplate reader measuring. The experiment was carried out in triplicate, being the absorbance corrected by subtracting that of the culture medium amended with the corresponding PM tested.

[8] = system: Staphylococcus aureus ATCC 25923; experiment: Kill curve assay (MBC), planktonic cells; assay type: cell-based; conditions: for MBC: minimal bactericidal concentration, planktonic cells, 24 h challenge, LB medium, read-out: MBC S. aureus; for B-SI (Bacterial Selectivity Index), S. aureus: ratio of IC50 of normal hTERT-RPE-1 to MBC of S. aureus, second value of the cell
Procedure: as §3

Escherichia coli = system: Escherichia coli; set-up: method as in PMID 31405863, PMID 15730262; conditions: natural PMs; cited from earlier work
P. aeruginosa cells = experiment: AO/EB double staining of bacterial cells; assay type: cell-based, Pseudomonas aeruginosa; conditions: 10 μM (sub-inhibitory), 24 h
Procedure: It is noteworthy to highlight that the main difference between PM-C and 5d relies only on the presence of the nitro group in the position R3 of the latter, which is likely responsible for its enhanced electronegativity and, therefore, better biological reactivity over PM-C.
Figure 3 Fluorescence micrographs of P. aeruginosa cells treated for 24 h with 100 μM of PM-C or 10 μM of PM 5d after AO/EB double staining. Control represents untreated cells. Green (AO) are viable cells, red (EB) dead cells, and orange vital cells with damaged membranes.

P. aeruginosa = experiment: MIC by absorbance at 600 nm after overnight challenge; assay type: cell-based; conditions: Pseudomonas aeruginosa, LB medium, absorbance 600 nm
Procedure: as §3

S. aureus = experiment: as above; assay type: cell-based; conditions: Staphylococcus aureus, LB medium, absorbance 600 nm
Procedure: as §3

[9] = Staphylococcus aureus, ATCC25923

IC50 [1] [µM]	IC50 ([4]; Homo sapiens, HCT-116, 48 h) [µM]	IC50 ([5]; Homo sapiens, MCF7, 48 h) [µM]	IC50 [5] [µM]	melting point [°C]	SMILES	C-SI, mean value among the two cancer cell lines [1]	AO/EB fluorescence of treated HCT116 cells (type of cell death) (HCT116 cells [2])	IC50 [3] [µM]	C-SI (Cancer Selectivity Index), HCT116 [4]	C-SI (Cancer Selectivity Index), MCF 7 [5]	morphology of treated HCT116 cells (HCT116 cells [6])	MBC [7] [µM]	log reduction in the number of viable CFUs, P. aeruginosa [7] [log]	B-SI (Bacterial Selectivity Index), P. aeruginosa [7]	MBC [8, 9] [µM]	B-SI (Bacterial Selectivity Index), S. aureus [8]	MBC [8] [µM]	MIC against Escherichia coli (Escherichia coli)	IC50 [4] [µM]	also measured
0.8 to 2.25	1.3 ± 0.3	1.22 ± 0.69	1.2 ± 0.7	–	O=C(c1cc(Br)cc(Br)c1O)c1[nH]c(Br)c(Br)c1Br [PM 1, 3,4,5,3′,5′-Pentabromo-2-(2′-hydroxybenzoyl)pyrrole, reference compound]	46	red fluorescence	57.7 ± 11.2	44.2	47.3	more fibroblastic and less clumped morphology	> 100	2.2	> 0.6	5 (≈ 2.91 µg/mL)	11.5	–	–	–	–
0.8 to 2.25	1.9 ± 0.42	2.25 ± 0.35	2.2 ± 0.3	–	O=C(c1cc([N+](=O)[O-])c[nH]1)c1cc(Cl)cc(Cl)c1O [PM 5a, (3,5-Dichloro-2-hydroxyphenyl)(4-nitro-1H-pyrrol-2-yl)methanone]	32	orange fluorescence	65.8 ± 10.5	34.6	29.2	more fibroblastic and less clumped morphology	> 100	–	> 0.7	60 (≈ 18.1 µg/mL)	1.1	60 (≈ 18.1 µg/mL)	–	–	–
–	–	–	–	–	COc1c(Cl)cc(Cl)cc1[C@H](O)c1[nH]c(Cl)c(Cl)c1[N+](=O)[O-] [PM-H]	–	–	–	–	–	–	–	–	–	–	–	–	more than 300 μM	–	–
> 7	11.1 ± 3.26	17.2 ± 3.2	17.2 ± 3.2	179 to 180	COc1c(Br)cc(Br)cc1C(=O)c1c(Br)c(Br)c(Br)n1C [PM 2, (3,5-Dibromo-2-methoxyphenyl)(3,4,5-tribromo-1-methyl-1H-pyrrol-2-yl)methanone]	11	–	149 ± 41	13.4	8.6	–	> 100	–	> 1.5	70 (≈ 42.7 µg/mL)	2.1	–	–	11.1 ± 3.3	–
> 7	18.7 ± 3.81	28.8 ± 4.21	28.8 ± 4.2	180 to 182	O=C(c1cc(Cl)c([N+](=O)[O-])[nH]1)c1cc(Cl)cc(Cl)c1O [PM 5b, (4-Chloro-5-nitro-1H-pyrrol-2-yl)(3,5-dichloro-2-hydroxyphenyl)methanone]	2.5	–	55.4 ± 13.2	3	1.9	–	> 100	2.7	> 0.6	20 (≈ 6.71 µg/mL)	2.8	20 (≈ 6.71 µg/mL)	–	18.7 ± 3.8	–
–	–	–	–	–	COc1c(Cl)cc(Cl)cc1C(=O)c1[nH]c(Cl)c(Cl)c1Cl [PM-J]	–	–	–	–	–	–	–	–	–	–	–	–	more than 300 μM	–	–
–	–	–	–	–	O=[N+]([O-])c1c([C@@H](O)c2cc(Cl)cc(Cl)c2O)[nH]c(Cl)c1Cl [PM-G]	–	–	–	–	–	–	–	–	–	–	–	–	more than 300 μM	–	–
–	–	–	–	–	COc1c(Cl)cc(Cl)cc1C(=O)c1cc(Cl)c(Cl)[nH]1 [PM-I]	–	–	–	–	–	–	–	–	–	–	–	–	more than 300 μM	–	–

SMILES	IC50 [1] [µM]	IC50 ([4]; Homo sapiens, HCT-116, 48 h) [µM]	IC50 ([5]; Homo sapiens, MCF7, 48 h) [µM]	IC50 [5] [µM]	melting point [°C]	C-SI, mean value among the two cancer cell lines [1]	AO/EB fluorescence of treated HCT116 cells (type of cell death) (HCT116 cells [2])	IC50 [3] [µM]	C-SI (Cancer Selectivity Index), HCT116 [4]	C-SI (Cancer Selectivity Index), MCF 7 [5]	morphology of treated HCT116 cells (HCT116 cells [6])	MBC [7] [µM]	log reduction in the number of viable CFUs, P. aeruginosa [7] [log]	B-SI (Bacterial Selectivity Index), P. aeruginosa [7]	MBC [8, 9] [µM]	B-SI (Bacterial Selectivity Index), S. aureus [8]	MBC [8] [µM]	MIC against Escherichia coli (Escherichia coli)	IC50 [4] [µM]	also measured
O=C(c1cc(Cl)cc(Cl)c1O)c1[nH]c(Cl)c(Cl)c1[N+](=O)[O-] [PM 5d, (3,5-Dichloro-2-hydroxyphenyl)(4,5-dichloro-3-nitro-1H-pyrrol-2-yl)methanone]	0.8 to 2.25	1.56	1.57 ± 0.39	1.6 ± 0.4	–	143	orange fluorescence	225 ± 22.7	143.3	143.4	more fibroblastic and less clumped morphology	30 (≈ 11.1 µg/mL)	–	7.5	7.5 (≈ 2.77 µg/mL)	30	–	–	1.6 ± 0.2	AO/EB staining colour of P. aeruginosa cells (P. aeruginosa cells): either orange (indicating that cell membranes were damaged due to the entrance of EB) or red (indicating not viable cells); late apoptosis by AO/EB staining, HCT116 (HCT116 cells [2]; treated at IC50, after 48 h): reddish orange cells; MIC (P. aeruginosa): > 20 µM; MIC (S. aureus): 2 µM (≈ 0.74 µg/mL)
O=C(c1cc(Br)c([N+](=O)[O-])[nH]1)c1cc(Cl)cc(Cl)c1O [PM 5c, (4-Bromo-5-nitro-1H-pyrrol-2-yl)(3,5-dichloro-2-hydroxyphenyl)methanone]	> 7	7.64 ± 1.88	12 ± 2.85	12 ± 2.8	175 to 177	8	–	29.7 ± 5.7	–	–	–	> 100	2.2	> 0.3	1 (≈ 0.38 µg/mL)	29.7	1 (≈ 0.38 µg/mL)	–	7.6 ± 1.9	MIC (S. aureus): 0.5 µM (≈ 0.19 µg/mL); fold more active than the synthetic PM-1 (S. aureus) ([8]; fold versus PM-1): 5; times more active than PM-C (S. aureus MBC) ([8]; fold versus PM-C): 90; times less toxic than PM-C (bacterial SI) ([8]; from bacterial selectivity index, S. aureus): 30
